Our source for the EC50 values is patent US12338228B2, “NLRP3 modulators” (Innate Tumor Immunity, Inc., priority 2019, dated 2025).

The target of the test is T1, NLRP3 (Homo sapiens, UniProt Q96P20).
T1 construct: host or cells: PMA-differentiated THP-1 cells
T1 sequence (Q96P20 whole entry): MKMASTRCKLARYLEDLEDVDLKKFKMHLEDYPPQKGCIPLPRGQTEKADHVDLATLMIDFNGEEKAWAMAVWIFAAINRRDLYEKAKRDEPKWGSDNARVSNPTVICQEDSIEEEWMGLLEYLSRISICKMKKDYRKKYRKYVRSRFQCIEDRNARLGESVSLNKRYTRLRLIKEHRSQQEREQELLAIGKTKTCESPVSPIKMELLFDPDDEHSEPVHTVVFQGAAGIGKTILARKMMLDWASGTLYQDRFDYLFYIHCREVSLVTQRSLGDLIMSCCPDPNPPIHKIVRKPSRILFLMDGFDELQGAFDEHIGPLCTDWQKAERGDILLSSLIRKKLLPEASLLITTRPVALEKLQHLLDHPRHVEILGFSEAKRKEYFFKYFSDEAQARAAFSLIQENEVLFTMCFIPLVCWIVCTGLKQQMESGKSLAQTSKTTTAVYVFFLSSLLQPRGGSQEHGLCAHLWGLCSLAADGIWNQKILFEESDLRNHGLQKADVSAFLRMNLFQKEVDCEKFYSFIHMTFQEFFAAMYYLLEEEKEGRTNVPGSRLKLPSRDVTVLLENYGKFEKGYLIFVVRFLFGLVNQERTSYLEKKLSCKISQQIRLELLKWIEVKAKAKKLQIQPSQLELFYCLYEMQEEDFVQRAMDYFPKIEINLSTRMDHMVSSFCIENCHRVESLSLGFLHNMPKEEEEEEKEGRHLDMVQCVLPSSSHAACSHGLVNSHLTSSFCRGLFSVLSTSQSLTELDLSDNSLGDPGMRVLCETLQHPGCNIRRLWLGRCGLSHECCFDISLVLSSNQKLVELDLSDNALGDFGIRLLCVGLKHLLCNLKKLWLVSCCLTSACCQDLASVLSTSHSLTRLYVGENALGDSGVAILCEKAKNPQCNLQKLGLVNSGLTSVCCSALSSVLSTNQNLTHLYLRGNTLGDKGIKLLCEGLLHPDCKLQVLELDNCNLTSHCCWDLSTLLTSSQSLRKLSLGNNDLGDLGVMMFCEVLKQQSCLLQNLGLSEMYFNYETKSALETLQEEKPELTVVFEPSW
The test can be described thus: Measurement of IL-1β production in PMA-differentiated THP-1 cells (NLRP3 hIL1β). The format is cell-based. On the procedure:
Serial dilutions of compounds in DMSO were added to low volume 384 well plates at 100 nl/well using an ECHO 550 acoustic dispenser (Labcyte) to achieve final starting concentration of 10 μM in assay.
THP-1 cells in RPMI (Gibco, 11875) media with 10% FBS at a density of 1×10^6 cell/ml in a T175 flask were treated with a final concentration of phorbol 12-myristate 13-acetate (PMA) (Sigma,P1585) of 50 ng/ml overnight at 37° C. at 5% CO2 for differentiation. Cells were harvested the next day after rinsing well with dPBS using 0.5% trypsin. A cell solution was prepared of 1×10^6 cells/ml for 50,000 cells in 50 μl/well in RPMI media with 2% FBS. Cells were plated using a multichannel pipette onto the compound dilutions in Greiner, 384 well, black clear bottom tissue culture treated plates (781090). The plates were incubated in 37° C. incubator at 5% CO2 for 2 hours.
After the 2 hour incubation, the cell plates were spun in the centrifuge for 5 minutes at 1200 rpm. Using the Felix (CyBio), 8 μl of the supernatant was transferred to 384 well, low volume, white proxy plates. (Perkin Elmer, 6008230). A human IL1beta hTRF kit was used to analyze the supernatant (CISBIO, 62HIL1BPEG). The kit instructions were followed for preparing the IL1Beta standard curve and then the antibodies from the kit were diluted 1:40 rather than 1:20 as kit instructed. Once combined, the antibodies were added across the plates, 5 μl/well. The plates were sealed and incubated at 4° C. overnight. The plates were then read on the Perkin Elmer EnVision at 665/615 nm using the hTRF laser.
Turning to `Nc1nc2cc(-c3ccn[nH]3)ccc2c(NCCO)c1C1CCCC1` [Example 14, 2-((2-Amino-3-cyclopentyl-7-(1H-pyrazol-5-yl)quinolin-4-yl)amino)ethan-1-ol], it took 260 nM to reach a half-maximal effect (EC50).

For the compound `Nc1cc(NCc2ccn[nH]2)c2ccc(-c3ccn[nH]3)c(F)c2n1` [Example 11, N4-((1H-Pyrazol-5-yl)methyl)-8-fluoro-7-(1H-pyrazol-5-yl)quinoline-2,4-diamine], the response was half-maximal at 710 nM (EC50).

Turning to `Nc1cc(N[C@H]2CC[C@H](O)C2)c2c(F)cc(-c3cc[nH]n3)cc2n1` [Example 8, (1S,3S)-3-((2-Amino-5-fluoro-7-(1H-pyrazol-3-yl)quinolin-4-yl)amino)cyclopentan-1-ol], the EC50 (in general, the concentration that produces a half-maximal response) came out at 230 nM.

In turn, `Nc1cc(NCCCO)c2ccc(-c3cc[nH]n3)c(F)c2n1` [Example 4, 3-((2-Amino-8-fluoro-7-(1H-pyrazol-3-yl)quinolin-4-yl)amino)propan-1-ol] had an EC50 of 330 nM.

The compound `Cc1c(N)nc2cc(-c3ccn[nH]3)ccc2c1NCc1ccn[nH]1` [Example 13, N4-((1H-Pyrazol-5-yl)methyl)-3-methyl-7-(1H-pyrazol-5-yl)quinoline-2,4-diamine] gave an EC50 of 450 nM.

As for `Nc1cc(N[C@H]2CCOC2)c2c(F)cc(-c3cc[nH]n3)cc2n1` [Example 10, (S)-5-Fluoro-7-(1H-pyrazol-3-yl)-N4-(tetrahydrofuran-3-yl)quinoline-2,4-diamine], the EC50 turned out to be 850 nM.

For the compound `Cc1c(N)nc2cc(-c3ccn[nH]3)ccc2c1NCCCO` [Example 12, 3-((2-Amino-3-methyl-7-(1H-pyrazol-5-yl)quinolin-4-yl)amino)propan-1-ol], the EC50 was 2900 nM.

`Cc1cc(-c2cc[nH]n2)cc2nc(N)cc(N[C@H]3CC[C@H](O)C3)c12` [Example 5, (1S,3S)-3-((2-Amino-5-methyl-7-(1H-pyrazol-3-yl)quinolin-4-yl)amino)cyclopentan-1-ol] came in with an EC50 of 4000 nM.

In turn, `Nc1nc2cc(-c3cc[nH]n3)ccc2c(NCCCO)c1F` [Example 1, 3-((2-Amino-3-fluoro-7-(1H-pyrazol-3-yl)quinolin-4-yl)amino)propan-1-ol] showed an EC50 of 160 nM.

“3-((2-Amino-3-cyclopentyl-7-(1H-pyrazol-5-yl)quinolin-4-yl)amino)propan-1-ol [Example 16]” came in with an EC50 of 260 nM. This EC50 lies about 1.6-fold higher than the previous one.

In turn, `Nc1nc2cc(-c3ccn[nH]3)ccc2c(NCc2ccccn2)c1C1CCCC1` [Example 15, 3-Cyclopentyl-7-(1H-pyrazol-5-yl)-N4-(pyridin-2-ylmethyl)quinoline-2,4-diamine] gave an EC50 of 440 nM.

In turn, `Nc1nc2cc(-c3cc[nH]n3)ccc2c(N[C@H]2CC[C@H](O)C2)c1F` [Example 2, (1 S,3 S)-3-((2-Amino-3-fluoro-7-(1H-pyrazol-3-yl)quinolin-4-yl)amino)cyclopentan-1-ol] displayed an EC50 of 600 nM.

Compound `Nc1nc2cc(-c3cc[nH]n3)ccc2c(NCCCO)c1Cl` [Example 3, 3-((2-Amino-3-chloro-7-(1H-pyrazol-3-yl)quinolin-4-yl)amino)propan-1-ol] registered an EC50 of 350 nM.

`Nc1cc(NCc2cc[nH]n2)c2c(F)cc(-c3cc[nH]n3)cc2n1` [Example 9, N4-((1H-Pyrazol-3-yl)methyl)-5-fluoro-7-(1H-pyrazol-3-yl)quinoline-2,4-diamine] showed an EC50 of 290 nM. The EC50 values of the last two compounds are within 1.5-fold of each other.

`Nc1cc(NCCCO)c2c(F)cc(-c3cc[nH]n3)cc2n1` [Example 7, 3-((2-Amino-5-fluoro-7-(1H-pyrazol-3-yl)quinolin-4-yl)amino)propan-1-ol] displayed an EC50 of 230 nM.

Compound `Cc1cc(-c2cc[nH]n2)cc2nc(N)cc(NCc3cc[nH]n3)c12` [Example 6, N4-((1H-Pyrazol-3-yl)methyl)-5-methyl-7-(1H-pyrazol-3-yl)quinoline-2,4-diamine] yielded an EC50 of 1400 nM. Compared with the last compound, the EC50 is about 6.1-fold higher.
